Results reported in patent EP0117176A1, “Zinc salt of L-thiazolidine-4-carboxylic acid, its preparation, compositions containing it and its use” (PIERRE FABRE S.A., priority 1983, dated 1984).

Legend:
[1] = Antioxidant power: peroxide index during oxidation of linoleic acid (method of CARNAT and POURRAT, linoleic acid instead of linseed oil)
Procedure: La mesure du pouvoir antioxydant est effectuée selon la méthode décrite par CARNAT et POURRAT (Ann. Pharm. Fr. 1979, 37, n° 3-4, p. 119-124) en remplaçant l'huile de lin par de l'acide linoléique. L'oxydation de l'acide linoléique est suivie chaque jour par une mesure de l'indice de péroxyde Ip.
Dans un flacon contenant l'acide linoléique, on ajoute 15 ml de CHCl3, 20 ml d'acide acétique RP puis 1 ml de solution aqueuse saturée de IK. On agite une minute et on laisse reposer le flacon 5 minutes à l'obscurité.
A près voir ajouté 100 ml d'eau, on dose l'iode libéré par du thiosulfate de sodium 0,01 N.

[2] = tested on: lipase; assay: Antilipase power: inhibition of hydrolysis of glycerol tributyrate by lipase; assay type: biochemical; details: substrate tributyrate de glycérol
Procedure: Le milieu d'incubation témoin ne contient que des acides gras estérifiés (tributyrate de glycérol).
L'ajout de lipase dans le milieu entraîne l'hydrolyse du tributyrate de glycérol.
L'incorporation de L-thiazolidine-4 carboxylate de zinc avant l'adjonction de lipase empêche la libération d'acide butyrique. Les résultats obtenus sont regroupés dans le tableau suivant : […]

[3] = Solubility; assay type: physicochemical; details: dans les solvants organiques
Source text: Solubilité : Soluble dans l'eau à 1 %. Insoluble dans les solvants organiques.

[4] = Local tolerance on shaved flank; assay type: in vivo; details: 5 cobayes albinos adultes; application three times a week for two weeks on shaved flank
Source text: La tolérance a été recherchée sur 5 cobayes albinos adultes.

## L-thiazolidine-4 carboxylate de zinc
[1]; Temps 0 h
  Indice de péroxydes: 0,91
[1]; Temps 24 h
  Indice de péroxydes: 12,7
[1]; Temps 48 h
  Indice de péroxydes: 25.2
[2]; 5 mg
  % d'inhibition mesuré: 52%
[2]; 10 mg
  % d'inhibition mesuré: 71,5%
[3]
  Solubilité: Insoluble
[4]
  Tolérance locale: aucune réaction
